The numbers were not newly measured in US20060141037A1, “Bilayer tablets of oxcarbazepine for controlled delivery and a process of preparation thereof” (J. B. Chemicals & Pharmaceuticals Ltd., priority 2004, published 2006), which cites them from elsewhere.

Data set [1] concerns animal models. Conditions: comparable to that of carbamazepine and phenytoin.
Data set [2] relates to voltage-sensitive sodium channels. As to conditions: in vitro electrophysiological studies.

`NC(=O)N1c2ccccc2CC(O)c2ccccc21` (centres unmarked) [MHD, 10,11-dihydro-10-hydro-carbamazepine]: the “antiepileptic activity in animal models” value in data set [1] is “potent antiepileptic activity”. Moreover, the “effect on voltage-sensitive sodium channels” value in data set [2] was “blockade of voltage-sensitive sodium channels”.

Turning to `NC(=O)N1c2ccccc2CC(=O)c2ccccc21` [Oxcarbazepine, 10,11-dihydro-10-oxo-5H-dibenz[b,f]azepine-5-carboxamide], the solubility in water entry is on record as “practically insoluble in water”. For the same compound, in data set [1], the “antiepileptic activity in animal models” value is “potent antiepileptic activity”. Also, the “effect on voltage-sensitive sodium channels” value in data set [2] was “blockade of voltage-sensitive sodium channels”.
